Source: the NIST ThermoML archive (doi:10.1016/j.jct.2018.05.027)

Experiment: xn = mol fraction of the nth substance listed
Details: Liquid, Vibrating wire viscometry

CCC(C)O (stereo not drawn) [butan-2-ol] + CC(C)CC(C)(C)C
viscosity [mPa·s]
Details	293.15 K	298.15 K	313.15 K	333.15 K	353.15 K
100 kPa, x1 = 0.2999	0.6047	–	0.4647	0.3574	0.2785
100 kPa, x1 = 0.5001	0.7922	–	0.5643	0.4132	0.3272
100 kPa, x1 = 0.7996	1.673	–	0.9784	0.6203	0.4165
100 kPa, x1 = 1	3.767	3.102	1.839	1.007	0.6198
1000 kPa, x1 = 0.2999	0.609	–	0.4677	0.3614	0.2825
1000 kPa, x1 = 0.5001	0.797	–	0.5722	0.4166	0.333
1000 kPa, x1 = 0.7996	1.707	–	0.9858	0.631	0.4213
1000 kPa, x1 = 1	3.813	3.123	1.862	1.023	0.6273
5000 kPa, x1 = 0.2999	0.6391	–	0.4936	0.3814	0.2981
5000 kPa, x1 = 0.5001	0.8463	–	0.6074	0.4455	0.349
5000 kPa, x1 = 0.7996	1.793	–	1.043	0.6669	0.4405
5000 kPa, x1 = 1	3.978	3.28	1.947	1.078	0.6577
10000 kPa, x1 = 0.2999	0.6863	–	0.5264	0.4083	0.3222
10000 kPa, x1 = 0.5001	0.8968	–	0.6501	0.4682	0.373
10000 kPa, x1 = 0.7996	1.913	–	1.11	0.7064	0.4671
10000 kPa, x1 = 1	4.235	3.462	2.041	1.133	0.6999
20000 kPa, x1 = 0.2999	0.7692	–	0.5924	0.4584	0.3642
20000 kPa, x1 = 0.5001	1	–	0.7349	0.5293	0.4151
20000 kPa, x1 = 0.7996	2.14	–	1.253	0.7854	0.5216
20000 kPa, x1 = 1	4.696	3.873	2.262	1.254	0.7717
30000 kPa, x1 = 0.2999	0.8642	–	0.6612	0.5124	0.4069
30000 kPa, x1 = 0.5001	1.131	–	0.8188	0.6041	0.4619
30000 kPa, x1 = 0.7996	2.395	–	1.4	0.8701	0.5729
30000 kPa, x1 = 1	5.159	4.253	2.503	1.372	0.8354
40000 kPa, x1 = 0.2999	0.9608	–	0.7328	0.5669	0.4472
40000 kPa, x1 = 0.5001	1.247	–	0.9032	0.6689	0.5088
40000 kPa, x1 = 0.7996	2.683	–	1.559	0.9706	0.6309
40000 kPa, x1 = 1	5.693	4.697	2.734	1.491	0.9088
50000 kPa, x1 = 0.2999	1.065	–	0.8134	0.6217	0.4904
50000 kPa, x1 = 0.5001	1.385	–	0.987	0.7304	0.5576
50000 kPa, x1 = 0.7996	2.993	–	1.707	1.07	0.6907
50000 kPa, x1 = 1	6.274	5.142	2.99	1.624	0.9898
60000 kPa, x1 = 0.2999	1.173	–	0.8859	0.6795	0.54
60000 kPa, x1 = 0.5001	1.541	–	1.082	0.7967	0.6147
60000 kPa, x1 = 0.7996	3.276	–	1.869	1.172	0.7546
60000 kPa, x1 = 1	6.831	5.553	3.237	1.759	1.07
70000 kPa, x1 = 0.2999	1.282	–	0.9597	0.7435	0.5886
70000 kPa, x1 = 0.5001	1.7	–	1.179	0.8604	0.6678
70000 kPa, x1 = 0.7996	3.645	–	2.049	1.271	0.8214
70000 kPa, x1 = 1	7.377	6.044	3.558	1.905	1.151
80000 kPa, x1 = 0.2999	1.395	–	1.04	0.8018	0.6326
80000 kPa, x1 = 0.5001	1.853	–	1.272	0.9339	0.7221
80000 kPa, x1 = 0.7996	3.939	–	2.23	1.387	0.8973
80000 kPa, x1 = 1	8.056	6.544	3.841	2.081	1.242
100000 kPa, x1 = 0.2999	1.66	–	1.223	0.9315	0.7318
100000 kPa, x1 = 0.5001	2.169	–	1.509	1.089	0.8402
100000 kPa, x1 = 0.7996	4.702	–	2.621	1.613	1.046
100000 kPa, x1 = 1	9.598	7.646	4.456	2.427	1.444
120000 kPa, x1 = 0.2999	1.925	–	1.414	1.057	0.8276
120000 kPa, x1 = 0.5001	2.516	–	1.74	1.236	0.9461
120000 kPa, x1 = 0.7996	5.445	–	3.051	1.831	1.206
120000 kPa, x1 = 1	11.31	9.053	5.179	2.716	1.644
140000 kPa, x1 = 0.2999	2.24	–	1.598	1.196	0.9377
140000 kPa, x1 = 0.5001	2.913	–	1.973	1.408	1.069
140000 kPa, x1 = 0.7996	6.323	–	3.552	2.083	1.367
140000 kPa, x1 = 1	13.38	10.43	5.933	3.099	1.845
